Test system: rat small-intestinal brush border membrane vesicles
Assay: Inhibitory effect on 33PO4 uptake into rat small-intestinal brush border membrane vesicles (rapid filtration method)
Type: biochemical, Wistar female rat
Details: 1 µM test compound; 33PO4 uptake into rat small-intestinal BBMVs, 60 seconds
Method in brief: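 Uptake was terminated by ice-cold 110 mM NaCl, 1 mM KH2PO4, 10 mM HEPES (pH 7.5) buffer and immediate suction filtration, then washing. Using rat small-intestinal BBMVs, retained 33PO4 was quantified by liquid scintillation counting as transport activity.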

In the case of Cc1cc(-c2cc(C(F)(F)F)ccc2NC(=O)C2=C(O)[C@@]3(C)CCCN3N(Cc3cccc(F)c3F)C2=O)cnc1C#N [Example 101], the “Rate of uptake inhibition (%) (1 µM)” value is reported as 57%.
For C[C@]12CCCN1N(Cc1cccc(F)c1F)C(=O)C(C(=O)Nc1ccc(Br)cc1F)=C2O [Example 75], the “Rate of uptake inhibition (%) (1 µM)” value was 74%.
With CSc1ncc(-c2cc(C(F)(F)F)ccc2NC(=O)C2=C(O)[C@@]3(C)CCCN3N(Cc3ccc(OCCN4CCOCC4)c(F)c3F)C2=O)cn1 [Example 104] the “Rate of uptake inhibition (%) (1 µM)” value was 73%.
For COc1cccc(-c2cc(C(F)(F)F)ccc2NC(=O)C2=C(O)[C@@]3(C)CCCN3N(Cc3ccc(OC4CCOCC4)c(F)c3F)C2=O)c1OC [Example 158], the “Rate of uptake inhibition (%) (1 µM)” value was 84%.
For CN(C[C@H](O)[C@@H](O)[C@H](O)[C@H](O)CO)C(=O)CCOCCOCCOCCOc1ccc(CN2C(=O)C(C(=O)Nc3ccc(C(F)(F)F)cc3-c3cc(C(F)(F)F)ncn3)=C(O)C3(CCCC3)N2C)c(F)c1F [Example 423], the “Rate of uptake inhibition (%) (1 µM)” value was 5%.
For CN1[C@@H](C(C)(C)C)C(O)=C(C(=O)Nc2ccc(C(F)(F)F)cc2C(F)(F)F)C(=O)N1Cc1ccc(OCCN2CCOCC2)c(F)c1F [Example 277], the “Rate of uptake inhibition (%) (1 µM)” value was 41%.
CN1N(Cc2ccc(OCCN3CCOCC3)c(F)c2F)C(=O)C(C(=O)Nc2ccc(C(F)(F)F)cc2-c2ccc(C(F)(F)F)nc2)=C(O)C12CCCC2 [Example 287] was tested, and the “Rate of uptake inhibition (%) (1 µM)” value was 47%.
With CN1N(Cc2cccc(F)c2F)C(=O)C(C(=O)Nc2ccc(Cl)cc2-c2ccc(C(F)(F)F)nc2)=C(O)C1(C)C [Example 309] the “Rate of uptake inhibition (%) (1 µM)” value was 68%.
With Cc1c(Cl)ncnc1-c1cc(C(F)(F)F)ccc1NC(=O)C1=C(O)[C@@]2(C)CCCN2N(Cc2cccc(F)c2F)C1=O [Example 69] the “Rate of uptake inhibition (%) (1 µM)” value was 74%.
In the case of CN1N(Cc2ccc(OCCN3CCC(N4CCOCC4)CC3)c(F)c2F)C(=O)C(C(=O)Nc2ccc(C(F)(F)F)cc2-c2cc(C(F)(F)F)ncn2)=C(O)C12CCC2 [Example 358], the “Rate of uptake inhibition (%) (1 µM)” value is reported as 34%.
For COC(=O)COc1ccc(CN2C(=O)C(C(=O)Nc3ccc(C(F)(F)F)cc3-c3ccc(C(F)(F)F)nc3)=C(O)[C@@]3(C)CCCN23)c(F)c1F [Example 150, Methyl 2-[4-[[(4aR)-4-Hydroxy-4a-methyl-2-oxo-3-[[4-(trifluoromethyl)-2-[6-(trifluoromethyl)pyridin-3-yl]phenyl]carbamoyl]-6,7-dihydro-5H-pyrrolo[1,2-b]pyridazin-1-yl]methyl]-2,3-difluorophenoxy] acetate], the “Rate of uptake inhibition (%) (1 µM)” value was 87%.
With C[C@]12CCCN1N(Cc1cccc(F)c1F)C(=O)C(C(=O)Nc1ccc(C(F)(F)F)cc1-c1cnc(Cl)cn1)=C2O [Example 74] the “Rate of uptake inhibition (%) (1 µM)” value was 82%.
For COc1cccc(-c2cc(C(F)(F)F)ccc2NC(=O)C2=C(O)[C@@]3(C)CCCN3N(Cc3ccc(OC[C@H]4CCCO4)c(F)c3F)C2=O)c1OC [Example 159], the “Rate of uptake inhibition (%) (1 µM)” value was 89%.
For Cc1ncc(-c2cc(C(F)(F)F)ccc2NC(=O)C2=C(O)[C@@]3(C)CCCN3N(Cc3cccc(F)c3F)C2=O)cc1C#N [Example 109, (4aR)-N-[2-(5-Cyano-6-methylpyridin-3-yl)-4-(trifluoromethyl)phenyl]-1-[(2,3-difluorophenyl)methyl]-4-hydroxy-4a-methyl-2-oxo-6,7-dihydro-5H-pyrrolo[1,2-b]pyridazine-3-carboxamide], the “Rate of uptake inhibition (%) (1 µM)” value was 52%.
C[C@]12CCCN1N(Cc1c(F)cc(OCCCCCOC[C@@H](O)CO)cc1F)C(=O)C(C(=O)Nc1ccc(C(F)(F)F)cc1-c1ccc(C(F)(F)F)nc1)=C2O [Example 153] was tested, and the “Rate of uptake inhibition (%) (1 µM)” value was 73%.
For CN(C)C(=O)N1CCN(CCOc2ccc(CN3C(=O)C(C(=O)Nc4ccc(C(F)(F)F)cc4-c4cc(C(F)(F)F)ncn4)=C(O)C4(CCC4)N3C)c(F)c2F)CC1 [Example 364], the “Rate of uptake inhibition (%) (1 µM)” value was 36%.
With CN1[C@@H](C(C)(C)C)C(O)=C(C(=O)Nc2cccc(C(F)(F)F)n2)C(=O)N1Cc1cccc(F)c1F [Example 244] the “Rate of uptake inhibition (%) (1 µM)” value was 71%.
CN1N(Cc2cccc(F)c2F)C(=O)C(C(=O)Nc2ccc(Br)c(C(F)(F)F)n2)=C(O)C12CCC2 [Example 258] was tested, and the “Rate of uptake inhibition (%) (1 µM)” value was 87%.
With CC(CN1CCOCC1)Oc1ccc(CN2C(=O)C(C(=O)Nc3ccc(C(F)(F)F)cc3-c3cc(C(F)(F)F)ncn3)=C(O)C3(CCC3)N2C)c(F)c1F (centres unmarked) [Example 408] the “Rate of uptake inhibition (%) (1 µM)” value was 47%.
In the case of CN1N(Cc2ccc(OCCN3CCOCC3)c(F)c2F)C(=O)C(C(=O)Nc2ccc(Cl)cc2-c2cc(C(F)(F)F)ncn2)=C(O)C12CCCC2 [Example 286], the “Rate of uptake inhibition (%) (1 µM)” value is reported as 50%.
With CN1N(Cc2ccc(OCCN3CCOCC3)c(F)c2F)C(=O)C(C(=O)Nc2ccc(C(F)(F)F)cc2-c2cc(C(F)(F)F)ncn2)=C(O)C12CCCCC2 [Example 295] the “Rate of uptake inhibition (%) (1 µM)” value was 21%.
With C[C@@]12CCCN1N(Cc1ccc(OCCN3CCOCC3)c(F)c1F)C(=O)C(C(=O)Nc1ccc(Cl)cc1-c1cc(C(F)(F)F)ncn1)=C2O.Cl [Example 107] the “Rate of uptake inhibition (%) (1 µM)” value was 54%.
With CC(C)[C@H]1C(O)=C(C(=O)Nc2ccc(C(F)(F)F)cc2-c2ccc(C(F)(F)F)nc2)C(=O)N(Cc2cccc(F)c2F)N1C [Example 253] the “Rate of uptake inhibition (%) (1 µM)” value was 40%.
In the case of CN1N(Cc2ccc(OCCN3CCC(N4CCOCC4)CC3)c(F)c2F)C(=O)C(C(=O)Nc2ccc(C(F)(F)F)cc2-c2cc(C(F)(F)F)ncn2)=C(O)C12CCCC2 [Example 374], the “Rate of uptake inhibition (%) (1 µM)” value is reported as 42%.
For C[C@]12CCCN1N(Cc1cccc(F)c1F)C(=O)C(C(=O)Nc1ccc(C(F)(F)F)cc1-c1cncc(C#N)c1)=C2O [Example 82], the “Rate of uptake inhibition (%) (1 µM)” value was 100%.
With C[C@]12CCCN1N(Cc1cccc(Cl)c1)C(=O)C(C(=O)Nc1ccc(C(F)(F)F)cc1-c1cc(C(F)(F)F)ncn1)=C2O [Example 181] the “Rate of uptake inhibition (%) (1 µM)” value was 85%.
In the case of CN(CCOCCOc1ccc(CN2C(=O)C(C(=O)Nc3ccc(C(F)(F)F)cc3-c3cc(C(F)(F)F)ncn3)=C(O)C3(CCCC3)N2C)c(F)c1F)C[C@H](O)[C@@H](O)[C@H](O)[C@H](O)CO [Example 420, 7-[[2,3-Difluoro-4-[2-[2-[methyl-[(2S,3R,4R,5R)-2,3,4,5,6-pentahydroxyhexyl]amino]ethoxy]ethoxy]phenyl]methyl]-10-hydroxy-6-methyl-8-oxo-N-[4-(trifluoromethyl)-2-[6-(trifluoromethyl)pyrimidin-4-yl]phenyl]-6,7-diazaspiro[4.5]dec-9-ene-9-carboxamide], the “Rate of uptake inhibition (%) (1 µM)” value is reported as 19%.
With CSc1ncc(-c2cc(C(F)(F)F)ccc2NC(=O)C2=C(O)[C@@]3(C)CCCN3N(Cc3ccc(C#CCCCCC(=O)O)c(F)c3F)C2=O)cn1 [Example 118, 7-[4-[[(4aR)-4-Hydroxy-4a-methyl-3-[[2-(2-methylsulfanylpyrimidin-5-yl)-4-(trifluoromethyl)phenyl]carbamoyl)-2-oxo-6,7-dihydro-5H-pyrrolo[1,2-b]pyridazin-1-yl]methyl]-2,3-difluorophenyl]hept-6-ynoate] the “Rate of uptake inhibition (%) (1 µM)” value was 81%.
CCN1[C@@H](C(C)(C)C)C(O)=C(C(=O)Nc2ccc(Cl)cc2-c2ccc(C(F)(F)F)nc2)C(=O)N1Cc1cccc(F)c1F [Example 245] was tested, and the “Rate of uptake inhibition (%) (1 µM)” value was 40%.
With COc1cncc(-c2cc(C(F)(F)F)ccc2NC(=O)C2=C(O)[C@@]3(C)CCCN3N(Cc3cccc(F)c3F)C2=O)c1 [Example 81] the “Rate of uptake inhibition (%) (1 µM)” value was 74%.
In the case of C[C@]12CCCN1N(Cc1c(F)cccc1Cl)C(=O)C(C(=O)Nc1ccc(C(F)(F)F)cc1-c1ccc(C(F)(F)F)nc1)=C2O [Example 204], the “Rate of uptake inhibition (%) (1 µM)” value is reported as 87%.
In the case of C[C@]12CCCN1N(Cc1ccc(F)c(F)c1)C(=O)C(C(=O)Nc1ccc(C(F)(F)F)cc1-c1cc(C(F)(F)F)ncn1)=C2O [Example 214], the “Rate of uptake inhibition (%) (1 µM)” value is reported as 91%.
With C[C@]12CCCN1N(Cc1ccccc1C#N)C(=O)C(C(=O)Nc1ccc(C(F)(F)F)cc1-c1cc(C(F)(F)F)ncn1)=C2O [Example 178] the “Rate of uptake inhibition (%) (1 µM)” value was 81%.
CN1N(Cc2ccc(OCCOCCOCCOCCC(=O)NCC(O)CO)c(F)c2F)C(=O)C(C(=O)Nc2ccc(C(F)(F)F)cc2-c2cc(C(F)(F)F)ncn2)=C(O)C12CCCC2 (centres unmarked) [Example 424] was tested, and the “Rate of uptake inhibition (%) (1 µM)” value was 17%.
With CN1N(Cc2ccc(OCCN3CCN(S(C)(=O)=O)CC3)c(F)c2F)C(=O)C(C(=O)Nc2ccc(C(F)(F)F)cc2-c2cc(C(F)(F)F)ncn2)=C(O)C12CCCC2 [Example 379] the “Rate of uptake inhibition (%) (1 µM)” value was 137%.
In the case of COCCOCCOc1ccc(CN2C(=O)C(C(=O)Nc3ccc(C(F)(F)F)cc3-c3cc(C(F)(F)F)ncn3)=C(O)C3(CCC3)N2C)c(F)c1F [Example 401], the “Rate of uptake inhibition (%) (1 µM)” value is reported as 39%.
In the case of COCCN(C)CCOCCOCCOCCOCCOc1ccc(CN2C(=O)C(C(=O)Nc3ccc(C(F)(F)F)cc3-c3cc(C(F)(F)F)ncn3)=C(O)C3(CCCC3)N2C)c(F)c1F [Example 432], the “Rate of uptake inhibition (%) (1 µM)” value is reported as 11%.
For COCCN(C)CCOCCOCCOCCOc1ccc(CN2C(=O)C(C(=O)Nc3ccc(C(F)(F)F)cc3-c3cc(C(F)(F)F)ncn3)=C(O)C3(CCCC3)N2C)c(F)c1F [Example 431], the “Rate of uptake inhibition (%) (1 µM)” value was 26%.
With CN1N(Cc2ccc(OCCN3CCOCC3)c(F)c2F)C(=O)C(C(=O)Nc2ccc(C(F)(F)F)cc2-c2ccc(C(F)(F)F)nc2)=C(O)C1(C)C [Example 314, 2-[[2,3-Difluoro-4-(2-morpholin-4-ylethoxy)phenyl]methyl]-5-hydroxy-1,6,6-trimethyl-3-oxo-N-[4-(trifluoromethyl)-2-[6-(trifluoromethyl)pyridin-3-yl]phenyl]pyridazine-4-carboxamide] the “Rate of uptake inhibition (%) (1 µM)” value was 72%.
In the case of CN1N(Cc2cccc(F)c2F)C(=O)C(C(=O)Nc2ccc(C(F)(F)F)cc2-c2cc(C(F)(F)F)ncn2)=C(O)C12CCC2 [Example 300], the “Rate of uptake inhibition (%) (1 µM)” value is reported as 74%.
With CN(CCO)CCOc1ccc(CN2C(=O)C(C(=O)Nc3ccc(C(F)(F)F)cc3-c3cc(C(F)(F)F)ncn3)=C(O)C3(CCCC3)N2C)c(F)c1F [Example 373] the “Rate of uptake inhibition (%) (1 µM)” value was 27%.
